For five compounds, Km results are on record in paper PMC8479088, “Thiocysteine lyases as polyketide synthase domains installing hydropersulfide into natural products and a hydropersulfide methyltransferase” (Nature Communications, 2021).

In one experiment the target is T1, LnmJ-SH (Streptomyces atroolivaceus, UniProt Q8GGP2).
T1 construct: E. coli, plasmid pBS3109, published procedure; PLP-dependent
Put plainly: pyruvate release, OPD derivatization, HPLC. It counts as biochemical. Conditions: 0.2 mM PLP, 20 mM KCl, 28 °C.

The subject of another experiment is T2, WsmR-SH.
T2 construct: N-terminal His6 tag (same procedure as GnmP), E. coli, plasmid pBS22010; PLP-dependent
As to the kind of experiment: pyruvate release, OPD derivatization, HPLC. It counts as biochemical, Streptomyces sp. CB02120-2. Conditions: 0.2 mM PLP, 20 mM KCl, 28 °C.

The next experiment has as its system T3, GnmT-SH.
T3 construct: N-terminal His6 tag (same procedure as GnmP), E. coli, plasmid pBS21022; PLP-dependent
As to the kind of experiment: pyruvate release, OPD derivatization, HPLC. It counts as biochemical, Streptomyces sp. CB01883. Conditions: 0.2 mM PLP, 20 mM KCl, 28 °C.

Experiment [1] relates to T4, GnmP.
T4 construct: N-terminal His6-tagged GnmP, E. coli BL21(DE3), plasmid pBS21021
As to the kind of experiment: HPLC of S-methylated product. Type of experiment: biochemical, Streptomyces sp. CB01883. Conditions: 2 mM SAM; 50 mM sodium phosphate pH 8.0; 28 °C.

The test system of experiment [2] is T4, GnmP. As to the kind of experiment: HPLC of methylated product […], WsmR-SH coupled. It counts as biochemical, Streptomyces sp. CB01883. Conditions: 7 generated in situ from 9 as surrogate substrate by 220 µM WsmR-SH; 2 mM SAM; 50 mM sodium phosphate pH 8.0; 28 °C; methods print substrate range in mM.

T1 sequence (Q8GGP2 entry or part of it): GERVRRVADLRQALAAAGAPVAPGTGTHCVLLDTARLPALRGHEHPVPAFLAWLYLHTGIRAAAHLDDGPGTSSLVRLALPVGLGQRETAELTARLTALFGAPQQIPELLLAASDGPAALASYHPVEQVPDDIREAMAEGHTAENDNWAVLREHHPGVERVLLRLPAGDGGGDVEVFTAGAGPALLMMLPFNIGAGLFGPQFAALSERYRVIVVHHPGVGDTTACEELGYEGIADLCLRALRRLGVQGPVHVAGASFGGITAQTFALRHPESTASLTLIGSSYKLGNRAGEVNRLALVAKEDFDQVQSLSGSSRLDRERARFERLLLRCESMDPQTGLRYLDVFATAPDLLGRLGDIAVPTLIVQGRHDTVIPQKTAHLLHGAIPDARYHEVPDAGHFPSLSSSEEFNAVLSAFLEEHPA

By Km is commonly meant the substrate concentration at which the rate is half of its maximum. With `CC(=O)NCCSC(=O)CC(C)(C)SC[C@H](N)C(=O)O` [compound 16, N-acetylcysteamine thioester (SNAC) of a truncated L-cysteine-polyketide adduct], the Km was 69 ± 11 mM on LnmJ-SH (50 mM sodium phosphate pH 7.2), 54 ± 10 mM in the experiment on WsmR-SH (50 mM sodium phosphate pH 7.2) and 41 ± 5 mM with GnmT-SH (50 mM sodium phosphate pH 7.2).
With `CC(=O)NCCSC(=O)CC(C)(C)SSC[C@H](N)C(=O)O` [compound 17, SNAC of a truncated L-thiocysteine-polyketide adduct], the Km on LnmJ-SH (50 mM sodium phosphate pH 7.2) is 9 ± 0.9 mM; in the experiment with WsmR-SH (50 mM sodium phosphate pH 7.2), 6.6 ± 0.7 mM; with GnmT-SH (50 mM sodium phosphate pH 7.2) it was 7.7 ± 1.2 mM.
As for GNM B [compound 4], in the experiment on GnmP [1], the Km stood at 0.0121 ± 0.0022 mM.
In the case of GNM P [compound 7], the Km in the experiment with GnmP [2] was 0.00245 ± 0.00041 mM.
In the case of L-cysteinyl-GNM B adduct [compound 9], the Km at LnmJ-SH (Tris-HCl pH 8.5) was determined as 7.04 ± 0.84 mM; with WsmR-SH (50 mM sodium phosphate pH 8.0), 1.45 ± 0.12 mM; in the experiment with GnmT-SH (50 mM sodium phosphate pH 8.0), 3.2 ± 0.3 mM.
